The text below walks through data of article PMC11574045, “A cofactor-induced repressive type of transcription factor condensation can be induced by synthetic peptides to suppress tumorigenesis” (The EMBO Journal, 2024).

“And” between values parts separate entries of the source, which are not always exact repeats. Identical values can stand only once. Ends that are not written are not given here.

One data set addresses T1, TEAD4 (Homo sapiens, UniProt Q15561).
T1 construct: His; made in house; host or cells: Escherichia coli BL21(DE3)
Put plainly: FRAP of TEAD4 droplets formed from purified protein. It is filed as biochemical. To be noted: purified TEAD4 protein treated with FAM-GLUP. The source says: (A) Schematic of the strategy of the initial version of a linker peptide termed “glup”. […] The two TEAD4 molecules are colored cyan and blue, respectively. […] Monomer, dimer, and oligomer TEAD4 bands are labeled. (D) Schematic illustration of an optimized version of the linker peptide (referred to as GLUP). […] (F) Comparison of glup with GLUP. MW, molecular weight. […] The quantification graph represents the data collected from 10 images (n = 10). Data shown as means ± SD represent the representative results from two independent experiments. Significance was tested using one-way ANOVA, followed by the Tukey’s post-hoc test. *p < 0.05; ****p < 0.0001. NaCl (+), 20 mM; NaCl (++), 150 mM; NaCl (+++), 500 mM. Scale bar, 10 μm. […] For each photobleached spot, the fluorescence recovery curve was traced. The graph represents the data collected from 5 droplets (n = 5). t1/2: fluorescence recovery time; Rf: mobile fraction. […] The quantification graph represents the data collected from 9 cells (n = 9). […] The data were analyzed using one-way ANOVA, followed by the Tukey’s post-hoc test. n.s., no significance; ****p < 0.0001. […] Three images were gradually taken during pre-bleach, bleaching pulses, followed by fluorescence recovery as indicated on the graph (left). […] White circles indicated the bleaching condensates. t1/2: fluorescence recovery time; Rf: mobile fraction. […]

For the next data set, the system named is HGC-27 cells. Briefly: RNA sequencing. It is filed as cell-based, human. To be noted: GLUP-treated HGC-27 cells. The protocol: For RNA sequencing, HGC-27 cells in 6-well plates were treated with GLUP peptide at 10 μg/ml for 48 h. The stocking buffer (20 mM HEPES pH 7.5, and 100 mM NaCl) was used as a negative control. Total RNA was extracted from at least two biological replicates. Extracted RNA was monitored for its quality using a 2100 Expert Bioanalyzer (Agilent) before being sent for library preparation and RNA sequencing (Majorbio). The RNA sequencing data were analyzed on a free online Majorbio I-Sanger Cloud Platform (www.majorbio.com).

Another data set can be described thus: Pharmacokinetics assay. It is filed as in vivo, mouse. To be noted: 10 mg/kg. The protocol:
Blood samples were obtained at 0, 0.17, 0.33, 0.5, 0.67, 0.83, 1, 2, 4, 6, 8, 10, 12, and 24 h after intraperitoneally injected administration of FAM-GLUP. These blood samples were then allowed to coagulate at room temperature for 4 h, and then were subjected to centrifugation at 3000 × g at 4 °C for 10 min in order to separate the plasma. The plasma samples were analyzed using an Ultra Performance Liquid Chromatography system (UPLC, Waters, Milford, MA). Pharmacokinetic parameters were calculated using Phoenix^TM WinNonlin® software (version 6.1.0.173; Pharsight Corp., Mountain View, CA).

Data set [1] concerns TEAD4^high or TEAD4^low GC patient-derived xenografts. Put plainly: Patient-derived xenograft (PDX) model. It is filed as in vivo, mouse. Also noted: Tumor area, TEAD4High PDX / Tumor area, TEAD4Low PDX: unit not given beside the values. The protocol:
To establish PDX models, cell suspensions from GC patients were prepared as they were for PDOs. Subcutaneous implantation was performed on one flank of 5-week-old SCID mice weighing from 16 to 18 g and that were anesthetized using a isoflurane/oxygen mixture. Tumor growth was monitored by taking biweekly measurements of the implantation sites. Serial engraftments of each tumor were performed when the tumor reached a volume of ~500 mm^3. Subsequently, PDX tumors were enzymatically disassociated to form a single-cell suspension. To reduce murine cell populations, the cell suspension was then subjected to magnetic mouse cell depletion using a MACS mouse cell depletion kit (Miltenyi Biotech, Bergisch Gladbach, Germany). Following the cell depletion, all established PDX cell lines were maintained at steady rates of proliferation in RPMI 1640 medium. Additionally, a small piece of tumor tissue was obtained using a scalpel and fixed in 10% formalin-buffered saline for histological analysis.
In general terms: In xenograft studies the graft and the host belong to different species.

For another data set, the system named is CTGF. Briefly: RNA-scope of CTGF in tumor tissues. The class given is in vivo, mouse. Particulars: tumors of GLUP-treated mice. The protocol:
RNA-scope was performed according to manufacturer’s protocols (RNAscope Red Detection Kit, ACDbio, 322360). Briefly, the tumor sections (3 μm thickness) were obtained from MNU-generated gastric tumor tissues. The sections were deparaffinized, retrieved, and then hybridized with Ctgf probes following the manufacturer’s instructions (ACD, Hayward, CA, USA). Subsequently, the signal of hybridized probes was further visualized using RED dye-labeled probes. Finally, the samples were redyed, this time with hematoxylin, and mounted with VectaMount Permanent Mounting Medium (Vector Laboratories, Burlingame, CA, USA), and photographed using a Nikon Upright Fluorescence Microscope (Nikon, Japan). Positive and negative control probes were used for each experiment to help derive conclusions from the data.

Where [2] appears, read: 5 mg/kg GLUP daily for 15 d, individual mice, n = 8 (source data Fig 8I).

T1 sequence (Q15561 whole entry): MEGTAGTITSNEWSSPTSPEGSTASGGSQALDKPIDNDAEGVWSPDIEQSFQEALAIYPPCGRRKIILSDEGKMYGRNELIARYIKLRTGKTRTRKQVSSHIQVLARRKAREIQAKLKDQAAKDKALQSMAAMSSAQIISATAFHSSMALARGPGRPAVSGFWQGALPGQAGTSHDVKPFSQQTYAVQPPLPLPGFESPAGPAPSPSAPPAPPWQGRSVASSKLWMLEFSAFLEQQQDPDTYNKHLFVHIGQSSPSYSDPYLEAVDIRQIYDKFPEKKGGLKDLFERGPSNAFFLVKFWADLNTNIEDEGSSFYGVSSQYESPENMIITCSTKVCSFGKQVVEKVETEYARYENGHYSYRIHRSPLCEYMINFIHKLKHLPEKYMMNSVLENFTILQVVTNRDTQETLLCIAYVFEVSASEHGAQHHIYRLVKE

Regarding “RRVCVHFHFSLSLR-NH2 (C-terminus assumed) [glup]”, the “mobile fraction (FRAP)” value at TEAD4 is “about 86%”. The “GSEA of TEAD signature genes” value with HGC-27 cells is “negative enrichment of TEAD signature genes”. Besides, the half-life result in the data set “Pharmacokinetics assay” (mouse peripheral blood/plasma, FAM-GLUP intraperitoneal, sampling 0–24 h, UPLC, WinNonlin) is recorded as “over 4 h”. For the same substance, the “plasma levels of GLUP, max” value in “Pharmacokinetics assay” (mouse, as read by Referee #1 from Supp. Fig. 6K of the submitted version) is given as “around 0.15 µg/ml”. In data set [1] (setting [2]), the “Tumor area, TEAD4High PDX” value was 0 and 0.0472 and 0.0501 and 0.0406 and 0.03159 and 0.05051; the “Tumor area, TEAD4Low PDX” value was 0.09232 and 0.08466 and 0.08264 and 0.05322 and 0.1278 and 0.08635 and 0.1028 (2×). In addition, in data set [1] (GLUP (i.v.) for 2 weeks), the “Tumor response, TEAD4^high PDX” value is “significantly regressed” and the “Tumor response, TEAD4^low PDX” value was “did not respond to the GLUP treatment”. The “Expression of TEAD4 target gene CTGF in tumor tissue” value with CTGF was “sharply decreased in a dose-dependent manner”.
